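All cell lines were grown in 96-well plates and treated with compound for 48 hours. TGI denotes the concentration required for complete inhibition of growth.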
Legend:
Assay in all cases: inhibition of tumour cell growth, NCI panel, 48 h
MCF7 breast = system: MCF7 breast
HT29 colon = system: HT29 colon
TK-10 renal = system: TK-10 renal
SNB-19 CNS = system: SNB-19 CNS
CCRF-CEM leukemia = system: CCRF-CEM leukemia
K-562 leukemia = system: K-562 leukemia
COLO 205 colon = system: COLO 205 colon
PC-3 prostate = system: PC-3 prostate
UACC-257 melanoma = system: UACC-257 melanoma
SNB-75 CNS = system: SNB-75 CNS
MDA-MB-435 = system: MDA-MB-435
NCI-H522 lung = system: NCI-H522 lung
RXF 393 renal = system: RXF 393 renal
A549 NSCLC = system: A549 NSCLC
SF-295 CNS = system: SF-295 CNS
HL-60(TB) leukemia = system: HL-60(TB) leukemia
HOP-62 NSCLC = system: HOP-62 NSCLC
SR leukemia = system: SR leukemia
BT-549 breast = system: BT-549 breast
M14 melanoma = system: M14 melanoma
HCT-116 colon = system: HCT-116 colon
UO-31 renal = system: UO-31 renal
NCI/ADR-RES ovarian = system: NCI/ADR-RES ovarian
OVCAR-8 ovarian = system: OVCAR-8 ovarian
CAKI-1 renal = system: CAKI-1 renal
MALME-3M melanoma = system: MALME-3M melanoma
MDA-MB-231 breast = system: MDA-MB-231 breast
IGROV1 ovarian = system: IGROV1 ovarian
SK-MEL-28 melanoma = system: SK-MEL-28 melanoma
HCT-15 colon = system: HCT-15 colon
HCC-2998 colon = system: HCC-2998 colon
786-0 renal = system: 786-0 renal
NCI-H23 lung = system: NCI-H23 lung
DU-145 prostate = system: DU-145 prostate
SF-539 CNS = system: SF-539 CNS
A498 renal = system: A498 renal
MDA-N = system: MDA-N
SK-MEL-5 melanoma = system: SK-MEL-5 melanoma
SK-OV-3 ovarian = system: SK-OV-3 ovarian
EKVX NSCLC = system: EKVX NSCLC
LOX IMVI melanoma = system: LOX IMVI melanoma
HS 578T breast = system: HS 578T breast
ACHN renal = system: ACHN renal
MOLT-4 leukemia = system: MOLT-4 leukemia
SW-620 colon = system: SW-620 colon
SK-MEL-2 melanoma = system: SK-MEL-2 melanoma
SN12C renal = system: SN12C renal
RPMI-8226 leukemia = system: RPMI-8226 leukemia
NCI-H226 lung = system: NCI-H226 lung
OVCAR-3 ovarian = system: OVCAR-3 ovarian
NCI-H460 lung = system: NCI-H460 lung
KM12 colon = system: KM12 colon
SF-268 CNS = system: SF-268 CNS
OVCAR-5 ovarian = system: OVCAR-5 ovarian
U251 CNS = system: U251 CNS
UACC-62 melanoma = system: UACC-62 melanoma
T-47D breast = system: T-47D breast
HOP-92 NSCLC = system: HOP-92 NSCLC
OVCAR-4 ovarian = system: OVCAR-4 ovarian
LXFL 529 NSCLC = system: LXFL 529 NSCLC
M19-MEL melanoma = system: M19-MEL melanoma
DLD-1 colon = system: DLD-1 colon
DMS 114 small cell lung = system: DMS 114 small cell lung
SNB-78 CNS = system: SNB-78 CNS
HOP-18 NSCLC = system: HOP-18 NSCLC
KM20L2 colon = system: KM20L2 colon
DMS 273 small cell lung = system: DMS 273 small cell lung

In the case of COc1ccc2c(-c3ccc(O)cc3)c(Oc3ccccc3)c(=O)oc2c1, the TGI (MCF7 breast) is reported as greater than 100 µM, the TGI (HT29 colon) is reported as 98.2 µM and the TGI (TK-10 renal) is reported as 18.1 µM. The TGI (SNB-19 CNS) was greater than 53.7 µM, the TGI (CCRF-CEM leukemia) was greater than 100 µM and the TGI (K-562 leukemia) was greater than 100 µM. For the same compound, the TGI (COLO 205 colon) was greater than 100 µM, the TGI (PC-3 prostate) was greater than 100 µM and the TGI (UACC-257 melanoma) was greater than 100 µM. The TGI (SNB-75 CNS) was greater than 66.5 µM, the TGI (MDA-MB-435) was greater than 100 µM and the TGI (NCI-H522 lung) was greater than 100 µM. The TGI (RXF 393 renal) was greater than 47.8 µM, the TGI (A549 NSCLC) was greater than 43 µM and the TGI (SF-295 CNS) was greater than 100 µM. For the same compound, the TGI (HL-60(TB) leukemia) was greater than 100 µM, the TGI (HOP-62 NSCLC) was greater than 100 µM and the TGI (SR leukemia) was greater than 23.4 µM. It also gave a TGI (BT-549 breast) greater than 100 µM, a TGI (M14 melanoma) greater than 100 µM and a TGI (HCT-116 colon) greater than 93.5 µM. The TGI (UO-31 renal) was 27.5 µM, the TGI (NCI/ADR-RES ovarian) was greater than 100 µM and the TGI (OVCAR-8 ovarian) was greater than 100 µM. It also gave a TGI (CAKI-1 renal) greater than 100 µM, a TGI (MALME-3M melanoma) greater than 86.3 µM and a TGI (MDA-MB-231 breast) greater than 100 µM. For the same compound, the TGI (IGROV1 ovarian) was greater than 62.3 µM, the TGI (SK-MEL-28 melanoma) was greater than 100 µM and the TGI (HCT-15 colon) was greater than 100 µM. For the same compound, the TGI (HCC-2998 colon) was greater than 69.3 µM, the TGI (786-0 renal) was greater than 52.1 µM and the TGI (NCI-H23 lung) was greater than 100 µM. It also gave a TGI (DU-145 prostate) greater than 50.8 µM, a TGI (SF-539 CNS) greater than 100 µM and a TGI (A498 renal) greater than 62 µM. For the same compound, the TGI (MDA-N) was greater than 100 µM, the TGI (SK-MEL-5 melanoma) was greater than 52 µM and the TGI (SK-OV-3 ovarian) was greater than 100 µM. The TGI (EKVX NSCLC) was greater than 77.8 µM, the TGI (LOX IMVI melanoma) was greater than 100 µM and the TGI (HS 578T breast) was 99.1 µM. It also gave a TGI (ACHN renal) greater than 85.9 µM, a TGI (MOLT-4 leukemia) greater than 100 µM and a TGI (SW-620 colon) greater than 100 µM. For the same compound, the TGI (SK-MEL-2 melanoma) was greater than 100 µM, the TGI (SN12C renal) was greater than 42.1 µM and the TGI (RPMI-8226 leukemia) was greater than 100 µM. For the same compound, the TGI (NCI-H226 lung) was greater than 87.2 µM, the TGI (OVCAR-3 ovarian) was greater than 100 µM and the TGI (NCI-H460 lung) was greater than 100 µM. The TGI (KM12 colon) was greater than 100 µM, the TGI (SF-268 CNS) was greater than 100 µM and the TGI (OVCAR-5 ovarian) was greater than 100 µM. For the same compound, the TGI (U251 CNS) was greater than 61.5 µM, the TGI (UACC-62 melanoma) was greater than 100 µM and the TGI (T-47D breast) was greater than 100 µM. The TGI (HOP-92 NSCLC) was greater than 87.8 µM and the TGI (OVCAR-4 ovarian) was greater than 100 µM.

CC(=O)OC[C@@H]1[C@H]2CC(=O)O[C@H]2C[C@H]1OC(C)=O gave a TGI (LXFL 529 NSCLC) greater than 100 µM, a TGI (HT29 colon) greater than 100 µM and a TGI (TK-10 renal) greater than 100 µM. The TGI (SNB-19 CNS) was greater than 100 µM, the TGI (CCRF-CEM leukemia) was greater than 100 µM and the TGI (M19-MEL melanoma) was greater than 100 µM. It also gave a TGI (COLO 205 colon) greater than 100 µM, a TGI (UACC-257 melanoma) greater than 100 µM and a TGI (SNB-75 CNS) greater than 100 µM. It also gave a TGI (NCI-H522 lung) greater than 100 µM, a TGI (RXF 393 renal) greater than 100 µM and a TGI (A549 NSCLC) greater than 100 µM. It also gave a TGI (SF-295 CNS) greater than 100 µM, a TGI (HL-60(TB) leukemia) greater than 100 µM and a TGI (HOP-62 NSCLC) greater than 100 µM. For the same compound, the TGI (SR leukemia) was greater than 100 µM, the TGI (M14 melanoma) was greater than 100 µM and the TGI (HCT-116 colon) was greater than 100 µM. For the same compound, the TGI (UO-31 renal) was greater than 100 µM, the TGI (OVCAR-8 ovarian) was greater than 100 µM and the TGI (DLD-1 colon) was greater than 100 µM. It also gave a TGI (CAKI-1 renal) greater than 100 µM, a TGI (MALME-3M melanoma) greater than 100 µM and a TGI (IGROV1 ovarian) greater than 100 µM. The TGI (SK-MEL-28 melanoma) was greater than 100 µM, the TGI (HCT-15 colon) was greater than 100 µM and the TGI (HCC-2998 colon) was greater than 100 µM. For the same compound, the TGI (786-0 renal) was greater than 100 µM, the TGI (SF-539 CNS) was greater than 100 µM and the TGI (A498 renal) was greater than 100 µM. The TGI (SK-MEL-5 melanoma) was greater than 100 µM, the TGI (SK-OV-3 ovarian) was greater than 100 µM and the TGI (EKVX NSCLC) was greater than 100 µM. The TGI (LOX IMVI melanoma) was greater than 100 µM, the TGI (ACHN renal) was greater than 100 µM and the TGI (DMS 114 small cell lung) was greater than 100 µM. For the same compound, the TGI (MOLT-4 leukemia) was greater than 100 µM, the TGI (SNB-78 CNS) was greater than 100 µM and the TGI (HOP-18 NSCLC) was greater than 100 µM. The TGI (SW-620 colon) was greater than 100 µM, the TGI (KM20L2 colon) was greater than 100 µM and the TGI (SN12C renal) was greater than 100 µM. The TGI (RPMI-8226 leukemia) was greater than 100 µM, the TGI (OVCAR-3 ovarian) was greater than 100 µM and the TGI (NCI-H460 lung) was greater than 100 µM. It also gave a TGI (KM12 colon) greater than 100 µM, a TGI (SF-268 CNS) greater than 100 µM and a TGI (OVCAR-5 ovarian) greater than 100 µM. It also gave a TGI (U251 CNS) greater than 100 µM, a TGI (UACC-62 melanoma) greater than 100 µM and a TGI (HOP-92 NSCLC) greater than 100 µM. The TGI (DMS 273 small cell lung) was greater than 100 µM and the TGI (OVCAR-4 ovarian) was greater than 100 µM.

Source: PubChem BioAssay (NCI)
